Results reported in patent US20230111310A1, “CARBOXYLIC ACID DERIVATIVE-SUBSTITUTED IMINO ARYL COMPOUND, PREPARATION METHOD THEREFOR, HERBICIDAL COMPOSITION AND USE THEREOF” (Qingdao Kingagroot Chemical Compound Co., Ltd., priority 2020, published 2023).

What was measured:
Assay in all cases: Weeding effect in post-emergence stage
Format in all cases: in vivo
Settings in all cases: Dose 15 g/ha; level of fresh weight growth control rate
Abutilon theophrasti = tested on: Abutilon theophrasti
From the text: (§1) The activity level criteria for plant damage (i.e., growth control rate) are as follows:
(§2) Monocotyledonous and dicotyledonous weed seeds (Descurainia sophia, Capsella bursa-pastoris, Abutilon theophrasti, Galium aparine, Stellaria media, Lithospermum arvense, rorippa indica, Alopecurus aequalis, Alopecurus japonicus, Eleusine indica, Beckmannia syzigachne, Sclerochloa dura, Conyza Canadensis, Phleum paniculatum, Veronica didyma Tenore, Bromus japonicus, Aegilops tauschii, Phalaris arundinacea, Amaranthus retroflexus, Chenopodiaceae, Commelina communis, Sonchus arvensis, Convolvulus arvensis, Cirsium setosum, Bidens tripartita L., Solanum nigrum, Acalypha australis, Digitaria sanguinalis, Echinochloa crusgalli, Setaria viridis, Setaria glauca, Leptochloa chinensis, Monochoria vaginalis, Sagittaria trifolia, Scirpus juncoides, Cyperus rotundus, Cyperus iria, Cyperus difformis, Fimbristylis, Portulaca oleracea, Xanthium sibiricum, Pharbitis nil, etc.) and major crop seeds (wheat, corn, rice, soybean, cotton, oilseed rape, millet, sorghum, potato, sesame, ricinus, etc.) were placed in plastic pots filled with soil, then covered with 0.5-2 cm of soil, allowed to grow in a good greenhouse environment. After 2 weeks of sowing, the test plants were treated in the 2-3 leaf stage. The tested compounds of the present invention were respectively dissolved in acetone, then added with Tween 80 and 1.5 liter/ha of emulsifiable concentrate of methyl oleate as synergist, diluted with a certain amount of water to obtain a solution with a certain concentration, and sprayed with a spray tower onto the plants. After the application, the plants were cultured for 3 weeks in the greenhouse, and then the experimental results of the weeding were counted. […]

Alopecurus japonicus = tested on: Alopecurus japonicus
From the text: as §1, §2

Digitaria sanguinalis = tested on: Digitaria sanguinalis
From the text: as §1, §2

Eleusine indica = tested on: Eleusine indica
From the text: as §1, §2

Setaria viridis = tested on: Setaria viridis
From the text: as §1, §2

Echinochloa crusgalli = tested on: Echinochloa crusgalli
From the text: as §1
Monocotyledonous and dicotyledonous weed seeds (Descurainia sophia, Capsella bursa-pastoris, Abutilon theophrasti, Galium aparine, Stellaria media, Lithospermum arvense, rorippa indica, Alopecurus aequalis, Alopecurus japonicus, Eleusine indica, Beckmannia syzigachne, Sclerochloa dura, Conyza Canadensis, Phleum paniculatum, Veronica didyma Tenore, Bromus japonicus, Aegilops tauschii, Phalaris arundinacea, Amaranthus retroflexus, Chenopodiaceae, Commelina communis, Sonchus arvensis, Convolvulus arvensis, Cirsium setosum, Bidens tripartita L., Solanum nigrum, Acalypha australis, Digitaria sanguinalis, Echinochloa crusgalli, Setaria viridis, Setaria glauca, Leptochloa chinensis, Monochoria vaginalis, Sagittaria trifolia, Scirpus juncoides, Cyperus rotundus, Cyperus iria, Cyperus difformis, Fimbristylis, Portulaca oleracea, Xanthium sibiricum, Pharbitis nil, etc.) and major crop seeds (wheat, corn, rice, soybean, cotton, oilseed rape, millet, sorghum, potato, sesame, ricinus, etc.) were placed in plastic pots filled with soil, then covered with 0.5-2 cm of soil, allowed to grow in a good greenhouse environment. After 2 weeks of sowing, the test plants were treated in the 2-3 leaf stage. The tested compounds of the present invention were respectively dissolved in acetone, then added with Tween 80 and 1.5 liter/ha of emulsifiable concentrate of methyl oleate as synergist, diluted with a certain amount of water to obtain a solution with a certain concentration, and sprayed with a spray tower onto the plants. After the application, the plants were cultured for 3 weeks in the greenhouse, and then the experimental results of the weeding were counted. The doses of the used compounds were 500, 250, 125, 60, 30, 15, 7.5 g/ha, and the averages were obtained by repeating for three times.

Row | SMILES | Weeding effect in post-emergence stage, Abutilon theophrasti (Abutilon theophrasti) | Weeding effect in post-emergence stage, Alopecurus japonicus (Alopecurus japonicus) | Weeding effect in post-emergence stage, Digitaria sanguinalis (Digitaria sanguinalis) | Weeding effect in post-emergence stage, Eleusine indica (Eleusine indica) | Weeding effect in post-emergence stage, Setaria viridis (Setaria viridis) | Weeding effect in post-emergence stage, Echinochloa crusgalli (Echinochloa crusgalli)
1 | CCOC(=O)C(C)O/N=C/c1cc(-n2c(=O)n(C)c(=S)n(C)c2=O)c(F)cc1C#N (racemic) [Compound 88] | 5 (Level 5: growth control rate is above 85%) | 5 (Level 5: growth control rate is above 85%) | 5 (Level 5: growth control rate is above 85%) | 5 (Level 5: growth control rate is above 85%) | 5 (Level 5: growth control rate is above 85%) | 5 (Level 5: growth control rate is above 85%)
2 | COC(=O)C(C)O/N=C/c1cc(-n2c(=O)n(C)c(=S)n(C)c2=S)c(F)cc1Cl (racemic) [Compound 124] | 5 (Level 5: growth control rate is above 85%) | 4 (Level 4: growth control rate is greater than or equal to 60% and less than 85%) | 5 (Level 5: growth control rate is above 85%) | 5 (Level 5: growth control rate is above 85%) | 5 (Level 5: growth control rate is above 85%) | 5 (Level 5: growth control rate is above 85%)
3 | CCOC(=O)C(C)O/N=C/c1cc(-n2c(=O)n(C)c(=S)n(C)c2=S)c(F)cc1Br (racemic) [Compound 161] | 5 (Level 5: growth control rate is above 85%) | 4 (Level 4: growth control rate is greater than or equal to 60% and less than 85%) | 4 (Level 4: growth control rate is greater than or equal to 60% and less than 85%) | 5 (Level 5: growth control rate is above 85%) | 5 (Level 5: growth control rate is above 85%) | 5 (Level 5: growth control rate is above 85%)
4 | COC(=O)C(C)O/N=C/c1cc(-n2c(=O)n(C)c(=O)n(C)c2=O)c(F)cc1Cl (racemic) [Compound 164] | 5 (Level 5: growth control rate is above 85%) | 5 (Level 5: growth control rate is above 85%) | 5 (Level 5: growth control rate is above 85%) | 5 (Level 5: growth control rate is above 85%) | 5 (Level 5: growth control rate is above 85%) | 5 (Level 5: growth control rate is above 85%)
5 | CCSC(=O)C(C)O/N=C/c1cc(-n2c(=O)n(C)c(=S)n(C)c2=O)c(F)cc1Cl (racemic) [Compound 168] | 5 (Level 5: growth control rate is above 85%) | 5 (Level 5: growth control rate is above 85%) | 5 (Level 5: growth control rate is above 85%) | 5 (Level 5: growth control rate is above 85%) | 5 (Level 5: growth control rate is above 85%) | 5 (Level 5: growth control rate is above 85%)
6 | COC(=O)CCNC(=O)C(C)O/N=C/c1cc(-n2c(=O)n(C)c(=S)n(C)c2=O)c(F)cc1Cl (racemic) [Compound 183] | 5 (Level 5: growth control rate is above 85%) | 5 (Level 5: growth control rate is above 85%) | 5 (Level 5: growth control rate is above 85%) | 5 (Level 5: growth control rate is above 85%) | 5 (Level 5: growth control rate is above 85%) | 5 (Level 5: growth control rate is above 85%)
7 | CC(O/N=C/c1cc(-n2c(=O)cc(C(F)(F)F)n(C)c2=O)c(F)cc1Cl)C(=O)O (racemic) [Compound 193] | 5 (Level 5: growth control rate is above 85%) | 5 (Level 5: growth control rate is above 85%) | 5 (Level 5: growth control rate is above 85%) | 5 (Level 5: growth control rate is above 85%) | 5 (Level 5: growth control rate is above 85%) | 5 (Level 5: growth control rate is above 85%)
8 | CCOC(=O)C(C)O/N=C/c1cc(-n2c(=O)cc(C(F)(F)F)n(C)c2=O)c(F)cc1Cl (racemic) [Compound 196] | 5 (Level 5: growth control rate is above 85%) | 5 (Level 5: growth control rate is above 85%) | 5 (Level 5: growth control rate is above 85%) | 5 (Level 5: growth control rate is above 85%) | 5 (Level 5: growth control rate is above 85%) | 5 (Level 5: growth control rate is above 85%)
9 | CCCOC(=O)C(C)O/N=C/c1cc(-n2c(=O)cc(C(F)(F)F)n(C)c2=O)c(F)cc1Cl (racemic) [Compound 198] | 5 (Level 5: growth control rate is above 85%) | 5 (Level 5: growth control rate is above 85%) | 5 (Level 5: growth control rate is above 85%) | 5 (Level 5: growth control rate is above 85%) | 5 (Level 5: growth control rate is above 85%) | 5 (Level 5: growth control rate is above 85%)
10 | CC(C)OC(=O)C(C)O/N=C/c1cc(-n2c(=O)cc(C(F)(F)F)n(C)c2=O)c(F)cc1Cl (racemic) [Compound 199] | 5 (Level 5: growth control rate is above 85%) | 5 (Level 5: growth control rate is above 85%) | 5 (Level 5: growth control rate is above 85%) | 5 (Level 5: growth control rate is above 85%) | 5 (Level 5: growth control rate is above 85%) | 5 (Level 5: growth control rate is above 85%)
11 | CCCCOC(=O)C(C)O/N=C/c1cc(-n2c(=O)cc(C(F)(F)F)n(C)c2=O)c(F)cc1Cl (racemic) [Compound 200] | 5 (Level 5: growth control rate is above 85%) | 5 (Level 5: growth control rate is above 85%) | 5 (Level 5: growth control rate is above 85%) | 5 (Level 5: growth control rate is above 85%) | 5 (Level 5: growth control rate is above 85%) | 5 (Level 5: growth control rate is above 85%)
12 | CC(C)COC(=O)C(C)O/N=C/c1cc(-n2c(=O)cc(C(F)(F)F)n(C)c2=O)c(F)cc1Cl (racemic) [Compound 201] | 5 (Level 5: growth control rate is above 85%) | 5 (Level 5: growth control rate is above 85%) | 5 (Level 5: growth control rate is above 85%) | 5 (Level 5: growth control rate is above 85%) | 5 (Level 5: growth control rate is above 85%) | 5 (Level 5: growth control rate is above 85%)
